From article PMC2193707 (The Journal of Experimental Medicine, 2002) come the findings set out here.

One experiment has as its target T1, mCD22d1–3-Fc (Mus musculus, UniProt P35329).
T1 sequence (P35329 22-347 limits assumed): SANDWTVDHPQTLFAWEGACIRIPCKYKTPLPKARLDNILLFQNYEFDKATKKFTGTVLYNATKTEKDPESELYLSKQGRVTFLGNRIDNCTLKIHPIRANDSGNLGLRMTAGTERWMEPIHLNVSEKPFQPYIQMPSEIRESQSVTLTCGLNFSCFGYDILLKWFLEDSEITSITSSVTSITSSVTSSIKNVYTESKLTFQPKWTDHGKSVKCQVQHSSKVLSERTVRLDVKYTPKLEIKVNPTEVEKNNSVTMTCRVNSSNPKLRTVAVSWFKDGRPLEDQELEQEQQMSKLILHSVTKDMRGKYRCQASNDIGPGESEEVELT
Description: hapten inhibition of […]-Fc-chimera binding to fixed target cells.

In another experiment the target is mSnd1–3-Fc (Mus musculus, UniProt Q62230). Described as above.
Sequence of mSnd1–3-Fc (Q62230 20-325 limits assumed): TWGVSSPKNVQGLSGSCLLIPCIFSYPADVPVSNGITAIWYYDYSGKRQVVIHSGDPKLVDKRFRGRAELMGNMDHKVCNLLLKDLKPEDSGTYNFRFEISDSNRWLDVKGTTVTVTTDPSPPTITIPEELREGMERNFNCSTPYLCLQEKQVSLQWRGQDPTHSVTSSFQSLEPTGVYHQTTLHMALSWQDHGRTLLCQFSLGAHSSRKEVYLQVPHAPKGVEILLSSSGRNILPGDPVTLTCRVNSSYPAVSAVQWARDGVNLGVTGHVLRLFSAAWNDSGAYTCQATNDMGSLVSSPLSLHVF
Experiment [1] has as its target T2, hCD22 (cellular CD22 on Daudi cells) (Homo sapiens, UniProt P20273).
T2 sequence (P20273 20-847): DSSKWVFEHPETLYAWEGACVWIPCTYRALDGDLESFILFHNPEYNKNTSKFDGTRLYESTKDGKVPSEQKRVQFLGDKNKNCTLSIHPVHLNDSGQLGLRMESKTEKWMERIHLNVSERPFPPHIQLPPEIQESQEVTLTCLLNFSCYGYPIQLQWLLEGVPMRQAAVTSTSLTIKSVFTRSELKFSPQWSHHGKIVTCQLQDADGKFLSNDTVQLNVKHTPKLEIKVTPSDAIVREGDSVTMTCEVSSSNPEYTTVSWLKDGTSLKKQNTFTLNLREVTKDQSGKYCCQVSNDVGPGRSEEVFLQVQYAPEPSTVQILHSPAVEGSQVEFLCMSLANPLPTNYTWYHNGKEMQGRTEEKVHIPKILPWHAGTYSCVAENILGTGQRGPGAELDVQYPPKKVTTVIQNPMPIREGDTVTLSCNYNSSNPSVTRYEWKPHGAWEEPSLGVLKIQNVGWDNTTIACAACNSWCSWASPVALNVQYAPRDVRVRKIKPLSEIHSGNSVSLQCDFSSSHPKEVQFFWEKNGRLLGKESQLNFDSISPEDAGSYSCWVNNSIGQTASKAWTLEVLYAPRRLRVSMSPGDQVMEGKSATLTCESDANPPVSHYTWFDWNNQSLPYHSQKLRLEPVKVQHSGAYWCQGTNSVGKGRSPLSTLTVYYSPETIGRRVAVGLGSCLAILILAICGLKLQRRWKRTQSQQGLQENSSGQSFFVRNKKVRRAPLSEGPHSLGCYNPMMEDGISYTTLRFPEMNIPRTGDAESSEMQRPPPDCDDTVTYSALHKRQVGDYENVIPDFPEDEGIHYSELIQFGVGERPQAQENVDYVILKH
Description: flow cytometry, inhibition of NeuGc2,6-PAA-bio probe staining. Conditions: sialidase-treated Daudi cells; preincubation on ice 10 min. It counts as cell-based. For orientation: Flow cytometry measures light scatter and fluorescence of single cells or particles in a stream.

The target of the next experiment is T3, hCD22d1–3-Fc (Homo sapiens, UniProt P20273).
T3 sequence (P20273 20-330 limits assumed): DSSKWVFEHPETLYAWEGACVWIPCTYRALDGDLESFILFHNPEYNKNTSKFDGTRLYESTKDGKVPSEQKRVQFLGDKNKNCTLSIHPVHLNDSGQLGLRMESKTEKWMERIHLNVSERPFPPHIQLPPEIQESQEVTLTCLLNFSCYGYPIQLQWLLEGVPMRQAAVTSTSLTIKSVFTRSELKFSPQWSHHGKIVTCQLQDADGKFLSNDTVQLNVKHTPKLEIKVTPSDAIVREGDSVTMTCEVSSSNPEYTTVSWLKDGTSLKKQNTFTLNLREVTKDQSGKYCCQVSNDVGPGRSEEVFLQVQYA
Briefly: hapten inhibition of […]-Fc-chimera binding to fixed target cells.

In experiment [2] the target is T4, mCD22 (cellular CD22 on mouse B cells) (Mus musculus, UniProt P35329).
T4 sequence (P35329 22-868): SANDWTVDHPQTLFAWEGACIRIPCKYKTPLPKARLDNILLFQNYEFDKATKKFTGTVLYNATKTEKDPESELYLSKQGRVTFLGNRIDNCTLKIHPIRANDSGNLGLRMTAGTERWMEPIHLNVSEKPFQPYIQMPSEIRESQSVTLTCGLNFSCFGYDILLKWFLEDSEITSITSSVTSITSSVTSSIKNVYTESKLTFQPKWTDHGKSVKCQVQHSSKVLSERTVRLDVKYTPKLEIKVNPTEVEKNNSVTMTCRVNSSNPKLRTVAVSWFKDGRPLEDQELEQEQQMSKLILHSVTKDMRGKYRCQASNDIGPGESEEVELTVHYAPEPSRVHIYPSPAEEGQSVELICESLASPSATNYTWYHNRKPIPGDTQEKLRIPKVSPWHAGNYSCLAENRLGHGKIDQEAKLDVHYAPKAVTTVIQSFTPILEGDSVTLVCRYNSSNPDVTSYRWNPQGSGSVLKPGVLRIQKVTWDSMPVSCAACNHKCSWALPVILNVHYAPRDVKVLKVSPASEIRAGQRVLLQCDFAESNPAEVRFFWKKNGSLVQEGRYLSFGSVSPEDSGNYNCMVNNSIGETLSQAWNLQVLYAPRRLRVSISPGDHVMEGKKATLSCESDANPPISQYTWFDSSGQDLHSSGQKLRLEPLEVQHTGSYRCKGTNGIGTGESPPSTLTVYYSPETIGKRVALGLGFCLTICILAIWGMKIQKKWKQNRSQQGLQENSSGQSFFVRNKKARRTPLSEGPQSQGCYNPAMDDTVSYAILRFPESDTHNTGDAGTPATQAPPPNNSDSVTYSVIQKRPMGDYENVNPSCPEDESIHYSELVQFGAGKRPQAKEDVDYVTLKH
Briefly: flow cytometry, inhibition of NeuGc2,6-PAA-bio probe staining. The experiment is classed as cell-based. Conditions: sialidase-treated mouse B cells (B220+); preincubation on ice 10 min.

As to `CO[C@]1(C(=O)O)C[C@H](O)[C@@H](NC(C)=O)[C@H]([C@H](O)[C@H](O)CNC(=O)c2ccc(-c3ccccc3)cc2)O1` [BPC-Neu5Ac, Methyl-a-9-N-(biphenyl-4-carbonyl)-amino-9-deoxy-Neu5Ac], the figures for the IC50 at mCD22d1–3-Fc, on mSnd1–3-Fc and at hCD22d1–3-Fc were 1220 µM, 52 µM and 4 µM, respectively. The “flow cytometry, inhibition of NeuGc2,6-PAA-bio probe staining” value in experiment [1] is reported as “Pretreatment with BPC-Neu5Ac was most potent in inhibiting the binding of the synthetic CD22 ligand”.
`CO[C@]1(C(=O)O)C[C@H](O)[C@@H](NC(C)=O)[C@H]([C@H](O)[C@H](O)CNC(=O)Cc2ccc(-c3ccccc3)cc2)O1` [BPAc-Neu5Ac, Methyl-a-9-N-(biphenyl-4-acetyl)-amino-9-deoxy-Neu5Ac]: the “flow cytometry, inhibition of NeuGc2,6-PAA-bio probe staining” value in experiment [2] is given as “performed on mouse B cells, BPAc-Neu5Ac was the more potent inhibitor”.

By IC50 is commonly meant the concentration that gives 50% inhibition. A low value points to higher potency.
